Structures are written as SMILES. pIC50: −log10 of the molar value.

The values below come from patent US20230174521A1, “NOVEL DIACYLGLYCERIDE O-ACYLTRANSFERASE 2 INHIBITORS” (Merck Sharp & Dohme LLC, priority 2020, published 2023).

For the assay, the target named is T1, human DGAT2 (hDGAT2) (Homo sapiens, UniProt Q96PD7).
T1 construct: made in house; host or cells: Sf-9 insect cells (baculovirus infection); membrane fraction
T1 sequence (Q96PD7 1-388): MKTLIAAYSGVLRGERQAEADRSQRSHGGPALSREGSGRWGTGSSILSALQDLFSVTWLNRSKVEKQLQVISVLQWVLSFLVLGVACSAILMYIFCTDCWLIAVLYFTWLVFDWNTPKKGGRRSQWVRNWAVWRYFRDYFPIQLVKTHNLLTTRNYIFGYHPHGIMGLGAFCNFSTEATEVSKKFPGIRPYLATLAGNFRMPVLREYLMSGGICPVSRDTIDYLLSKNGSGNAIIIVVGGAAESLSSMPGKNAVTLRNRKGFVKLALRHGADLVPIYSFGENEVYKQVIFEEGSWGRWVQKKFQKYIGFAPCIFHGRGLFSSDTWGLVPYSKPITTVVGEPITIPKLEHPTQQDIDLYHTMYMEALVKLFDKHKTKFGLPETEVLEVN
Description: DGAT2 enzymatic activity assay (LC/MS/MS detection of 13C18-triolein, Sf-9 membrane prep). The format is biochemical. The following applies: hDGAT2 Sf-9 membrane, 25 μM diolein, 5 μM 13C oleoyl-CoA, rt. Here is the method:
Sf-9 insect cells were maintained in Grace's insect cell culture medium with 10% heated-inactivated fetal bovine serum, 1% Pluronic F-68 and 0.14 μg/ml Kanamycine sulfate at 27° C. in a shaker incubator. After infection with untagged baculovirus expressing human DGAT2 (hDGAT2) at multiplicity of infection (MOI) 3 for 48 hours, cells were harvested. Cell pellets were suspended in buffer containing 10 mM Tris-HCl pH 7.5, 1 mM EDTA, 250 mM sucrose and Complete Protease Inhibitor Cocktail (Sigma Aldrich), and sonicated on ice. Cell debris were removed by centrifugation at 2000×g for 15 minutes. Membrane fractions were isolated by ultracentrifugation (100,000×g), resuspended in the same buffer, and frozen (−80° C.) for later use. The protein concentration was determined with the Pierce™ BCA Protein Assay Kit (Thermo Fisher Scientific). Expression of protein levels was analyzed by immunoblotting with rabbit anti-DGAT2 antibody (Abcam, ab102831) and donkey anti-rabbit IgG H&L Alexa Fluor® 647 (Abcam, ab150075) followed by detection using Typhoon FLA9000 (GE Healthcare).
LC/MS/MS analyses were performed using Thermal Fisher's LX4-TSQ Vantage system. This system consists of an Agilent binary high-performance liquid chromatography (HPLC) pumps and a TSQ Vantage triple quadrupole MS/MS instrument. For each sample, 2 μL samples from the top organic layer of in-plate liquid-liquid extraction were injected onto a Thermo Betabasic C4 column (2.1 mm×20 mm, 5 μm particle size). The samples were then eluted using the following conditions; mobile phase: Isopropanol: acetonitrile/10 mM ammonium formate=50/35/15 (v/v/v), flow rate: 0.8 mL/min, temperature: 25° C. Data was acquired in positive mode using a heated electrospray ionization (HESI) interface. The operational parameters for the TSQ Vantage MS/MS instrument were a spray voltage of 3000 V, capillary temperature of 280° C., vaporizer temperature 400° C., sheath gas 45 arbitrary unit, Aux gas 10 arbitrary units, S-lens 165 and collision gas 1.0 mTorr. […] (SRM) chromatograms of ^13C18-triolein (Q1: 920.8>Q3:621.3) and internal standard ^13C21-triolein (Q1: 923.8>Q3:617.3) were collected for 33 sec. The peak area was integrated by Xcalibur Quan software. The ratio between the ^13C18triolein generated in the reaction and spiked in internal standard ^13C21-triolein was used to generate percentage inhibition and IC50 values. Compound percentage inhibition was calculated by the following formula: Inhibition %=1−[(compound response−low control)/(high control−low control)]×100%. Potent compounds were titrated and IC50 were calculated by 4 parameter sigmoidal curve fitting formula.
DGAT2 activity was determined by measuring the amount of enzymatic product ^13C18-triolein (^13C-1,2,3-Tri(cis-9-octadecenoyl)glycerol) using the membrane prep mentioned above. The assay was carried out in ABgene 384-well assay plates in a final volume of 25 μL at rt. The assay mixture contained the following: assay buffer (100 mM Tris.Cl, pH 7.0, 20 mM MgCl2, 5% ethanol), 25 μM of diolein, 5 μM of ^13C oleoyl-CoA and 8 ng/μL of DGAT2 membrane.
As to `CC(C)(O)c1nn(-c2cccc(OC(F)F)c2)c2ccc(C(=O)N[C@@]3(C)CCS(=O)(=O)C3)cc12` [Example 33, (S)-1-(3-(difluoromethoxy)phenyl)-3-(2-hydroxypropan-2-yl)-N-(3-methyl-1,1-dioxidotetrahydrothiophen-3-yl)-1H-indazole-5-carboxamide], the pIC50 (usually the negative decadic logarithm of the IC50, by convention in mol/L) was 7.57.

For the compound `CC(O)c1nn(-c2cccc(OC(F)F)c2)c2ccc(C(=O)N[C@@]3(C)CCS(=O)(=O)C3)cc12` (stereo partly drawn) [Example 34, 1-(3-(difluoromethoxy)phenyl)-3-(l-hydroxyethyl)-N-((S)-3-methyl-1,1-dioxidotetrahydrothiophen-3-yl)-1H-indazole-5-carboxamide], the pIC50 is 7.08.

For `CC1(NC(=O)c2cc(Cl)c3c(c2)c(C(C)(C)O)nn3-c2cccc(OC(F)F)c2)CS(=O)(=O)C1` [Example 35, 7-chloro-1-(3-(difluoromethoxy)phenyl)-3-(2-hydroxypropan-2-yl)-N-(3-methy1-l,1-dioxidothietan-3-yl)-1H-indazole-5-carboxamide], the negative logarithm of the IC50 (pIC50) is 8.04.

Take `Cc1cc(C(=O)NC2(C)CS(=O)(=O)C2)cc2c(C(C)(C)O)nn(-c3cccc(OC(F)F)c3)c12` [Example 36, 1-(3-(difluoromethoxy)phenyl)-3-(2-hydroxypropan-2-yl)-7-methyl-N-(3-methyl-1,1-dioxidothietan-3-yl)-1H-indazole-5-carboxamide]: the pIC50 is 7.23.

Regarding `CC1(NC(=O)c2cc(F)c3c(c2)c(C(C)(C)O)nn3-c2cccc(OC(F)F)c2)CS(=O)(=O)C1` [Example 37, l-(3-(difluoromethoxy)phenyl)-7-fluoro-3-(2-hydroxypropan-2-yl)-N-(3-methyl-1,1-dioxidothietan-3-yl)-1H-indazole-5-carboxamide], the pIC50 is 7.82.

On to `CC1(NC(=O)c2cnc3c(c2)c(C2(O)CCC2)nn3-c2cccc(OC(F)F)c2)CS(=O)(=O)C1` [Example 39, l-(3-(difluoromethoxy)phenyl)-3-(l-hydroxycyclobutyl)-N-(3-methyl-1,1-dioxidothietan-3-yl)-lH-pyrazolo[3,4-b]pyridine-5-carboxamide], for which the negative-log IC50 (pIC50) was 7.82.

Turning to `CC1(NC(=O)c2cnc3c(c2)c(C(C)(C)O)nn3-c2cc(OC(F)(F)F)ccc2F)CS(=O)(=O)C1` [Example 40, l-(2-fluoro-5-(trifluoromethoxy)phenyl)-3-(2-hydroxypropan-2-yl)-N-(3-methyl-1,1-dioxidothietan-3-yl)-1H-pyrazolo[3,4-b]pyridine-5-carboxamide], the pIC50 was 7.85. This pIC50 and that of the compound before are within 0.2 log units of each other.

As to `CC1(NC(=O)c2cnc3c(c2)c(C(C)(C)O)nn3-c2cc(OC(F)F)ccc2F)CS(=O)(=O)C1` [Example 41, l-(5-(difluoromethoxy)-2-fluorophenyl)-3-(2-hydroxypropan-2-yl)-N-(3-methyl-1,1-dioxidothietan-3-yl)-1H-pyrazolo[3,4-b]pyridine-5-carboxamide], the pIC50 was 7.60.

With `CC1(NC(=O)c2cnc3c(c2)c(C(C)(C)O)nn3-c2cccc(OC(F)(F)F)c2)CS(=O)(=O)C1` [Example 42, 3-(2-hydroxypropan-2-yl)-N-(3-methyl-1,1-dioxidothietan-3-yl)-1-(3-(trifluoromethoxy)phenyl)-1H-pyrazolo[3,4-b]pyridine-5-carboxamide], the pIC50 was 6.97. Against the preceding compound, the pIC50 is 0.63 log units lower.

Regarding `CC1(NC(=O)c2cnc3c(c2)c(C(C)(O)C(F)F)nn3-c2cccc(OC(F)F)c2)CS(=O)(=O)C1` (centres unmarked) [Example 43, 3-(1,1-difluoro-2-hydroxypropan-2-yl)-1-(3 - (difluoromethoxy)phenyl)-N-(3-methyl-1,1-dioxidothietan-3-yl)-1H-pyrazolo[3,4-b]pyridine-5-carboxamide], the pIC50 was 6.93. This pIC50 and that of the compound before are within 0.2 log units of each other.

With `CC1(NC(=O)c2cnc3c(c2)c(C(C)(C)O)nn3-c2cc(OCC(F)F)ncc2F)CCS(=O)(=O)CC1` [Example 44, 1-(2-(2,2-difluoroethoxy)-5-fluoropyridin-4-yl)-3-(2-hydroxypropan-2-yl)-N-(4-methyl-1,1-dioxidotetrahydro-2H-thiopyran-4-yl)-1H-pyrazolo[3,4-b]pyridine-5-carboxamide], the pIC50 was 8.57.
